# Test results reported in patent publication US20200170975A1 (Strongbridge Dublin Limited, priority 2018, published 2020).
# Where two headings read alike, the source gives them in different places.
# Tests used:
# [1] = target: T1, OAT4 (Homo sapiens, UniProt Q9NSA0); assay: OAT4 inhibition: accumulation of [3H]-estrone-3-sulfate in S2 cells; format: in vitro ADME
# T1 construct: expressed in transfected cells; host or cells: S2 cells
# T1 sequence (Q9NSA0 1-550): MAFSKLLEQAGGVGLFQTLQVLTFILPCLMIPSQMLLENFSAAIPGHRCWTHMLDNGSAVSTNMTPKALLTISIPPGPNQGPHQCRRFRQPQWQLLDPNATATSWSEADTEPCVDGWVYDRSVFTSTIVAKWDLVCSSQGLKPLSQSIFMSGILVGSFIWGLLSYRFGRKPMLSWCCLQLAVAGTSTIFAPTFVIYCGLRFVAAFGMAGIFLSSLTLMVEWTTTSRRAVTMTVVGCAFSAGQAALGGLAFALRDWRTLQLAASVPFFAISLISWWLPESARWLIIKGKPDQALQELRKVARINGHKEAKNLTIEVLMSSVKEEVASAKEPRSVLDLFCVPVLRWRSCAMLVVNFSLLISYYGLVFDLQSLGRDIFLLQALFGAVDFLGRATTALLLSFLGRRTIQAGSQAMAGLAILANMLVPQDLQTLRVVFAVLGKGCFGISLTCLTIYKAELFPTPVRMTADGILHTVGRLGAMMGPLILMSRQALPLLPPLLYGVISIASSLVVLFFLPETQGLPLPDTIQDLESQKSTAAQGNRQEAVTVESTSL
# Procedure: Schneider 2 (S2) cells are a commonly used Drosophila melanogaster cell lines from a primary culture of late stage (20-24 hours old) embryos from a macrophage-like lineage. S2 cells are used to express heterologous proteins, to produce proteins on a large scale, and to easily and transiently transfect with several plasmids at once to study protein interactions.
# [^14C]-Metformin (1 mM) was provided as a solid and was prepared in Hank's balanced salt solution (HBSS).
# [2] = target: T2, OCT1 (Homo sapiens, UniProt O15245)
# T2 sequence (O15245 1-554): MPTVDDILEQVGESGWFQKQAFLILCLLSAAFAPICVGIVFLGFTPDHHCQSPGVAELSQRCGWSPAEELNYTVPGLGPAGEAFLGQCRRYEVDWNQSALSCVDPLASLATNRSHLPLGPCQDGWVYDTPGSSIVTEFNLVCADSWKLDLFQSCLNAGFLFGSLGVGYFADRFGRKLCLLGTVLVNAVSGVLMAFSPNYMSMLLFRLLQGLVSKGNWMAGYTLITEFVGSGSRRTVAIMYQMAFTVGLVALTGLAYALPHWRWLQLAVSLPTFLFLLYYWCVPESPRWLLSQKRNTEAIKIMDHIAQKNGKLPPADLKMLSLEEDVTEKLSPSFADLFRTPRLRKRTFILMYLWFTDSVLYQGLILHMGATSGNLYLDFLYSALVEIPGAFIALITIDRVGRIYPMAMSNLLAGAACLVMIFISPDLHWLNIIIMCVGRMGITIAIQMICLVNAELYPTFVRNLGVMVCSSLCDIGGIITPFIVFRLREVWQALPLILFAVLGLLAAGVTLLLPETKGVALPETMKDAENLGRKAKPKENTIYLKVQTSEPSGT
# [3] = target: P-gp (Homo sapiens, UniProt P08183)
# [4] = target: T3, BCRP (Homo sapiens, UniProt Q9UNQ0); assay: BCRP inhibition: bidirectional transport of prazosin across MDCKII-BCRP and control MDCKII cells; conditions: for Recovery (%) A:B / Recovery (%) B:A / % control: 120 min
# T3 sequence (Q9UNQ0 1-655): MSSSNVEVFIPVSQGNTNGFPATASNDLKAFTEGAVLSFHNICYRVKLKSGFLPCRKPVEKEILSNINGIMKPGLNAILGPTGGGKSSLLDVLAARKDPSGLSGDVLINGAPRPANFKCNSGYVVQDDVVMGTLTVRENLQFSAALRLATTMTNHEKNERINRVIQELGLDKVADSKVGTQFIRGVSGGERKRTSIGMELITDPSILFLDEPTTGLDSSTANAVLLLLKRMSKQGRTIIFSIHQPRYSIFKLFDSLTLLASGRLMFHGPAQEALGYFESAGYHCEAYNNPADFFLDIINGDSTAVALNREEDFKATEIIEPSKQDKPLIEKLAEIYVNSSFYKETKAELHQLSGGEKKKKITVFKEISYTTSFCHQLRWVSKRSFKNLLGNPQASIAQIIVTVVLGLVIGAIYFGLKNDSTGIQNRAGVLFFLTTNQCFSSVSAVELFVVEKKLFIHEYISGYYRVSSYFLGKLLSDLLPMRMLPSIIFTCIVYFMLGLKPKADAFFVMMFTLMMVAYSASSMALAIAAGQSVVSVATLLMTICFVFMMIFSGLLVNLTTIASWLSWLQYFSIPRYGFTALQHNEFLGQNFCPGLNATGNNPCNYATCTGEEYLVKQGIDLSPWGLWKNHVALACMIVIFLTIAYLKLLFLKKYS
# From the text: MDCKII P-gp, MDCKII BCRP and control MDCKII cells were purchased from the Netherlands Cancer Institute.
# [5] = target: T2, OCT1; conditions: for Uptake, OCT1 (Average ± SD): OCT1 HEK293 cells; for Uptake, OCT1 (Average ± SD) / % control / Background corrected uptake rate / Uptake, Control (Average ± SD): [14C]-TEA bromide 5 μM; for Uptake, Control (Average ± SD): control HEK293 cells
# Chain of P-gp (P08183 whole entry): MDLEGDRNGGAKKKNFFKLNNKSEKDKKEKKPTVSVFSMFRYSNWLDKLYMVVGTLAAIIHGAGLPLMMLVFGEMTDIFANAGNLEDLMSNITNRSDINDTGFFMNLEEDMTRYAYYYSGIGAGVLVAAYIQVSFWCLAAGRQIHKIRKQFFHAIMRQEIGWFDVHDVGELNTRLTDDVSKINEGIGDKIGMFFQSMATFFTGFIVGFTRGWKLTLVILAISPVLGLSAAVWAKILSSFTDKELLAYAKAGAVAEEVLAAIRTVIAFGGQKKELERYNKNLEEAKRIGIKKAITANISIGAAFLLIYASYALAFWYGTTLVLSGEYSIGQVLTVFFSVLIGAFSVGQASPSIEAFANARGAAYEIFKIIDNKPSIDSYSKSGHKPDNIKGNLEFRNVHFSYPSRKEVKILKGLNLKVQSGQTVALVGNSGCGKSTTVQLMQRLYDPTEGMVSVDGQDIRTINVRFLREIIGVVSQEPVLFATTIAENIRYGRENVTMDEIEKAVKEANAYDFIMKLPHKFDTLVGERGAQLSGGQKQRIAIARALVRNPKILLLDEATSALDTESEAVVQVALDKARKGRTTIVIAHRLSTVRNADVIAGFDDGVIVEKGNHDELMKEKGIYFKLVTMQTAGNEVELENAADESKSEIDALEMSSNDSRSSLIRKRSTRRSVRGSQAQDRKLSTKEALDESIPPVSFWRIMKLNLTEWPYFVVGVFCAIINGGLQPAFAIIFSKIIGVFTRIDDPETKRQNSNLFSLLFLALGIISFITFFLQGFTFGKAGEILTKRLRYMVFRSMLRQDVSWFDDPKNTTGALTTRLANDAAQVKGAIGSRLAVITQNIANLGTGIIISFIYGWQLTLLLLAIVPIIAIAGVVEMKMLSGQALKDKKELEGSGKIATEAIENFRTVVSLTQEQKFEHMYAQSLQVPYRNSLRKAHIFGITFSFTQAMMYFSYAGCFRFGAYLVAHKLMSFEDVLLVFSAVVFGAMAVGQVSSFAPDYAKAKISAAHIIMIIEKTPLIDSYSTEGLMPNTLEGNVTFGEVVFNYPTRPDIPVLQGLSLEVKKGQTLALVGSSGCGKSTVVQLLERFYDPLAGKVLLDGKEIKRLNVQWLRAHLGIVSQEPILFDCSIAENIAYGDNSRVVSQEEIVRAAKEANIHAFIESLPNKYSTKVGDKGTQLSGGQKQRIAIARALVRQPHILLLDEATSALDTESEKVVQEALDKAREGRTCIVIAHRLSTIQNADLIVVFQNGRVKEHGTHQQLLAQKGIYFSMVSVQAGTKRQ
smiles,measurement,setting,value
"NS(=O)(=O)c1cc(Cl)c(Cl)c(S(N)(=O)=O)c1 [Dichlorphenamide, 4,5-dichloro-1,3-benzenedisulfonamide]",IC50,[1],> 1 mM
same,IC50,[2],> 1 mM
same,IC50,[3],> 1 mM
same,IC50,[4],> 1 mM
same,Recovery (%) A:B,"[4]; dog, MDCK, 1000 μM",84.7%
same,Recovery (%) B:A,"[4]; dog, MDCK, 1000 μM",77.0%
same,% control,"[4]; human, 3 μM",124%
same,% control,"[4]; human, 10 μM",91.4%
same,% control,"[4]; human, 30 μM",83.3%
same,% control,"[4]; human, 100 μM",91.2%
same,% control,"[4]; human, 300 μM",91.9%
same,% control,"[4]; human, 1000 μM",60.0%
same,Recovery (%) A:B,"[4]; human, 1000 μM",93.0%
same,Recovery (%) B:A,"[4]; human, 1000 μM",83.7%
same,"Uptake, OCT1 (Average ± SD)",[5]; inhibitor 1 μm,121 ± 11 pmol/mg protein
same,"Uptake, OCT1 (Average ± SD)",[5]; inhibitor 3 μm,125 ± 5 pmol/mg protein
same,"Uptake, OCT1 (Average ± SD)",[5]; inhibitor 10 μm,111 ± 4 pmol/mg protein
same,"Uptake, OCT1 (Average ± SD)",[5]; inhibitor 30 μm,122 ± 14 pmol/mg protein
same,"Uptake, OCT1 (Average ± SD)",[5]; inhibitor 100 μm,128 ± 6 pmol/mg protein
same,"Uptake, OCT1 (Average ± SD)",[5]; inhibitor 300 μm,130 ± 10 pmol/mg protein
same,"Uptake, OCT1 (Average ± SD)",[5]; inhibitor 1000 μm,77.9 ± 3.0 pmol/mg protein
same,% control,[5]; inhibitor 1 μm,98.6%
same,Background corrected uptake rate,[5]; inhibitor 1 μm,7.76 pmol/mg/min
same,% control,[5]; inhibitor 3 μm,102%
same,Background corrected uptake rate,[5]; inhibitor 3 μm,8.07 pmol/mg/min
same,% control,[5]; inhibitor 10 μm,90.6%
same,Background corrected uptake rate,[5]; inhibitor 10 μm,7.13 pmol/mg/min
same,% control,[5]; inhibitor 30 μm,99.7%
same,Background corrected uptake rate,[5]; inhibitor 30 μm,7.85 pmol/mg/min
same,% control,[5]; inhibitor 100 μm,105%
same,Background corrected uptake rate,[5]; inhibitor 100 μm,8.26 pmol/mg/min
same,% control,[5]; inhibitor 300 μm,107%
same,Background corrected uptake rate,[5]; inhibitor 300 μm,8.40 pmol/mg/min
same,% control,[5]; inhibitor 1000 μm,63.5%
same,Background corrected uptake rate,[5]; inhibitor 1000 μm,5.00 pmol/mg/min
same,"Uptake, Control (Average ± SD)",[5]; inhibitor 1 μm,4.28 ± 1.48 pmol/mg protein
same,"Uptake, Control (Average ± SD)",[5]; inhibitor 3 μm,4.44 ± 1.97 pmol/mg protein
same,"Uptake, Control (Average ± SD)",[5]; inhibitor 10 μm,4.28 ± 0.92 pmol/mg protein
same,"Uptake, Control (Average ± SD)",[5]; inhibitor 30 μm,3.88 ± 0.48 pmol/mg protein
same,"Uptake, Control (Average ± SD)",[5]; inhibitor 100 μm,4.12 ± 0.73 pmol/mg protein
same,"Uptake, Control (Average ± SD)",[5]; inhibitor 300 μm,3.88 ± 1.11 pmol/mg protein
same,"Uptake, Control (Average ± SD)",[5]; inhibitor 1000 μm,2.99 ± 1.46 pmol/mg protein
same,IC50,"[5]; human, pH 7.4",> 1 mM
